Reference: patent publication US6750025B1 (priority 1998, dated 2004)
Entries after “also recorded” stand apart in the source; their conditions may differ.

Experiments:
Streptavidin = Streptavidin (Streptomyces avidinii, UniProt P22629); details: cited from earlier work
[1] = molecular target: streptavidin binding to the prion protein (Streptomyces avidinii, UniProt P22629)
[2] = molecular target: T1, streptavidin binding to Gly-Tyr-Gly-Gln-Pro-His-Gly-Gly sequence attached to resin A (Streptomyces avidinii, UniProt P22629)
T1 construct: purchased Sigma (streptavidin-phosphatase); Commonwealth Biotechnologies Inc. (peptide resin)
T1 sequence (P22629 25-183): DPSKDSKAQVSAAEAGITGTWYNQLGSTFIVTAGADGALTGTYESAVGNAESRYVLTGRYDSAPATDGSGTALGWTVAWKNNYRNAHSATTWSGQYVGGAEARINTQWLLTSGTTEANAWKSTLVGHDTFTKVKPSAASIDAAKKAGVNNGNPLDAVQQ

Sequence of streptavidin binding to the prion protein (P22629 25-183 limits assumed): as the sequence (P22629 25-183) above
Sequence of Streptavidin (P22629 25-183): as above

Compound: O=C(O)CCCC[C@@H]1SC[C@@H]2NC(=O)N[C@@H]21 [D-biotin]
- affinity of streptavidin to biotin (Streptavidin): ~10^15
- competition with the production of signal ([1]; D-biotin added after binding of streptavidin to the proteins): did not compete with the production of signal
- inhibition of banding at 30-34 kDa ([1]; streptavidin-phosphatase mixed with 10 μM D-biotin prior to addition to the Western blot): completely inhibited
- phosphatase activity in flow through of resin A after biotin pre-incubation [2]: significant phosphatase activity; also recorded: found in the first few column volumes
